Assay results: patent US9000175B2, “Bicyclic GPR119 modulators” (Lupin Limited, priority 2010, dated 2015)
Values joined by “and” are separate entries in the source; they are usually repeats but may differ in a detail not shown here. Equal values may be shown once.

Target: T1, human GPR119 (Homo sapiens, UniProt Q8TDV5)
T1 construct: expressed in transfected cells
T1 sequence (Q8TDV5 1-335): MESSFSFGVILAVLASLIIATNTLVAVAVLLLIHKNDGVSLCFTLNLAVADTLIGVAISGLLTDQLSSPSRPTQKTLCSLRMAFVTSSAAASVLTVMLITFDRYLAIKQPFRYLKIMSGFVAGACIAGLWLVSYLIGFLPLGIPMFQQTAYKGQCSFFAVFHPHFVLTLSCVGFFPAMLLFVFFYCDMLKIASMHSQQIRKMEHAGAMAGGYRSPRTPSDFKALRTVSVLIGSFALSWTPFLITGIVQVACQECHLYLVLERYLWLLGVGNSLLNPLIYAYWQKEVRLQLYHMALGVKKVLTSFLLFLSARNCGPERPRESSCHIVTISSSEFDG
Test: Cyclic AMP assay in stable cell line
Assay type: cell-based
Conditions: CHO-K1 cells stably transfected with human GPR119; cAMP levels (FRET, cAMP femto kit); 1 h at 37° C; read-out: EC50 Range
Procedure: Cyclic AMP Assay in Stable Cell Line:
Chinese Hamster Ovary (CHO-K1) cells were stably transfected with human GPR119 and were maintained in Ham's F-12 complete medium containing 10% heat inactivated FBS (Sigma, UK). The cells were maintained under a selection pressure with 500 μg/ml G418 (GENETICIN). Stable clones were analyzed for functional cAMP response to OEA (oleoylethanolamide).
To estimate activation of GPR119 and induction of cAMP levels by GPR119 agonists, cells were serum starvation for 18-24 h, trypsinized and seeded in 96 well plates at a, density of 7500 cells/well. The cells were then treated with test compounds diluted in serum free Ham's F12 for 1 h at 37° C. The cAMP levels were measured by using the cAMP femto kit (CisBio) by following the manufacturer's instructions. Following treatment with a test compound, the cells were lysed and cAMP levels were estimated by adding D2-labelled cAMP and europium-cryptate conjugated anti-cAMP antibody. Close proximity of D2 and cryptate results in FRET and the subsequent fluorescence that is measured at 665 and 620 nm. The FRET response is calculated as the ratio of fluorescence at 665 to fluorescence at 620 nm. The unlabelled cAMP produced as a result of GPR119 activation/agonism competes with the D2-cAMP leading to a decrease in the FRET signal. Thus the FRET signal is inversely proportional to the amount of cAMP produced by the treated cells. In a separate set of wells, known concentrations of cAMP were added in order to get a standard linear curve for extrapolation of the cAMP values in the unknown/test samples. Fluorescence was measured on BMG Labtech PHERAstar machine.
The concentration of compound required to stimulate a half-maximal response (EC50) was determined using the GraphPad Prism software.
The compounds prepared were tested using the above assay procedure and the results obtained are given below.

SMILES | EC50
CCc1cnc(N2CCC(Oc3ccc(-n4ccc5cc(S(=O)(=O)CC)ccc54)nc3)CC2)nc1 [Example-11, 1-(5-((1-(5-Ethylpyrimidin-2-yl)piperidin-4-yl)oxy)pyridin-2-yl)-5-(ethylsulfonyl)-1H-indole] | < 50 nM
CC(C)NC(=O)c1ccc2c(ccn2-c2ccc(OC3CCN(C(=O)OC(C)(C)C)CC3)cn2)c1 [Example-62, tert-Butyl-4-((6-(5-(isopropylcarbamoyl)-1H-indol-1-yl)pyridin-3-yl)oxy) piperidine-1-carboxylate] | 50 to 250 nM
CCc1noc(N2CCC(Oc3ccc(-n4ccc5cc(C(=O)N(C)C)ccc54)nc3)CC2)n1 [Example-147, 1-(5-((1-(3-Ethyl-1,2,4-oxadiazol-5-yl)piperidin-4-yl)oxy)pyridin-2-yl)-N,N-dimethyl-1H-indole-5-carboxamide] | 50 to 250 nM
CS(=O)(=O)c1ccc2c(ccn2-c2ccc(OC3CCN(Cc4ccc(F)cc4)CC3)cn2)c1 [Example-82, 1-(5-((1-(4-Fluorobenzyl)piperidin-4-yl)oxy)pyridin-2-yl)-5-(methylsulfonyl)-1H-indole] | 50 to 250 nM
CC(C)C(=O)Nc1ccc2c(ccn2-c2ccc(OC3CCN(C(=O)OC(C)(C)C)CC3)cn2)c1 [Example-56, tert-Butyl-4-((6-(5-isobutyramido-1H-indol-1-yl)pyridin-3-yl)oxy)-piperidine-1-carboxylate] | < 50 nM
CCc1cnc(N2CCC(Oc3ccc(-n4ccc5cc(C(=O)N6CCCC6)ccc54)nc3)CC2)nc1 [Example-71, (1-(5-((1-(5-Ethylpyrimidin-2-yl)piperidin-4-yl)oxy)pyridin-2-yl)-1H-indol-5-yl)(pyrrolidin-1-yl)methanone] | < 50 nM
CCc1cnc(N2CCC(Nc3ccc(-n4ccc5cc(C(=O)N(C)C)ccc54)nc3)CC2)nc1 [Example-22, 1-(5-((1-(5-Ethylpyrimidin-2-yl)piperidin-4-yl)amino)pyridin-2-yl)-N,N-dimethyl-1H-indole-5-carboxamide] | < 50 nM
CC(C)OC(=O)N1CCC(Oc2ccc(-n3ccc4cc(C(=O)N(C)C)ccc43)nc2)CC1 [Example-74, Isopropyl 4-((6-(5-(dimethylcarbamoyl)-1H-indol-1-yl)pyridin-3-yl)oxy) piperidine-1-carboxylate] | < 50 nM
CC(C)OC(=O)N1CCC(COc2ccc(-n3ccc4cc(NC(=O)C(C)C)ccc43)nc2)CC1 [Example-126, Isopropyl 4-(((6-(5-isobutyramido-1H-indol-1-yl)pyridin-3-yl)oxy)methyl)piperidine-1-carboxylate] | < 50 nM and 50 to 250 nM
CCOC(=O)N1CCC(Oc2ccc(-n3ccc4cc(-n5cncn5)ccc43)nc2)CC1 [Example-192, Ethyl-4-((6-(5-(1H-1,2,4-triazol-1-yl)-1H-indol-1-yl)pyridin-3-yl)oxy) piperidine-1-carboxylate] | 250 to 1000 nM
CNC(=O)c1ccc2c(ccn2-c2ccc(OCC3CCN(C(=O)OC(C)(C)C)CC3)cn2)c1 [Example-66, tert-Butyl-4-(((6-(5-(methylcarbamoyl)-1H-indol-1-yl)pyridin-3-yl)-oxy)methyl)piperidine-1-carboxylate] | 50 to 250 nM
CCOC(=O)N1CCC(Oc2ccc(-n3ccc4cc(N5CCCC5=O)ccc43)nc2)CC1 [Example-182, Ethyl 4-((6-(5-(2-oxopyrrolidin-1-yl)-1H-indol-1-yl)pyridin-3-yl)oxy) piperidine-1-carboxylate] | 50 to 250 nM
CC(C)c1noc(CN2CCC(Oc3ccc(-n4ccc5cc(C(=O)N(C)C)ccc54)nc3)CC2)n1 [Example-84] | 250 to 1000 nM
CC(C)(C)OC(=O)N1CC2COCC(C1)C2Oc1ccc(-n2ccc3cc(S(C)(=O)=O)ccc32)nc1 (stereo not drawn) [Example-49, (anti) tert-Butyl-9-((6-(5-(methylsulfonyl)-1H-indol-1-yl)pyridin-3-yl)oxy)-3-oxa-7-azabicyclo[3.3.1]nonane-7-carboxylate] | < 50 nM
CS(=O)(=O)c1ccc2c(ccn2-c2ccc(OC3CCN(Cc4ccc(C(F)(F)F)cc4)CC3)cn2)c1 [Example-153, 5-(Methylsulfonyl)-1-(5-((1-(4-(trifluoromethyl)benzyl)piperidin-4-yl)oxy)pyridin-2-yl)-1H-indole] | 50 to 250 nM
CCOC(=O)Nc1ccc2c(ccn2-c2ccc(OC3CCN(c4nc(C(C)C)no4)CC3)cn2)c1 [Example-141, Ethyl(1-(5-((1-(3-isopropyl-1,2,4-oxadiazol-5-yl)piperidin-4-yl)oxy)pyridin-2-yl)-1H-indol-5-yl)carbamate] | < 50 nM
CC(C)c1noc(N2CCC(Nc3ccc(-n4ccc5cc(S(C)(=O)=O)ccc54)nc3)CC2)n1 [Example-120, N-(1-(3-Isopropyl-1,2,4-oxadiazol-5-yl)piperidin-4-yl)-6-(5-(methylsulfonyl)-1H-indol-1-yl)pyridin-3-amine] | < 50 nM
CC(C)c1noc(CN2CCC(Oc3ccc(-n4ccc5cc(S(C)(=O)=O)ccc54)nc3)CC2)n1 [Example-80, 3-Isopropyl-5-((4-((6-(5-(methylsulfonyl)-1H-indol-1-yl)pyridin-3-yl)oxy)piperidin-1-yl)methyl)-1,2,4-oxadiazole] | < 50 nM
CCOC(=O)Nc1ccc2c(ccn2-c2ccc(OC3CCN(c4ncc(CC)cn4)CC3)cn2)c1 [Example-9, Ethyl(1-(5-((1-(5-ethylpyrimidin-2-yl)piperidin-4-yl)oxy)pyridin-2-yl)-1H-indol-5-yl)carbamate] | < 50 nM
CN(C)C(=O)c1ccc2c(ccn2-c2ccc(OCC3CCN(C(=O)OC(C)(C)C)CC3)cn2)c1 [Example-45, tert-butyl 4-(((6-(5-(dimethylcarbamoyl)-1H-indol-1-yl)pyridin-3-yl)oxy)methyl)piperidine-1-carboxylate] | < 50 nM and 50 to 250 nM
CCc1cnc(N2CCC(Oc3ccc(-n4ccc5cc(S(C)(=O)=O)ccc54)nc3)CC2)nc1 [Example-2, 1-(5-((1-(5-Ethylpyrimidin-2-yl)piperidin-4-yl)oxy)pyridin-2-yl)-5-(methylsulfonyl)-1H-indole] | < 50 nM
CC(C)NC(=O)c1ccc2c(ccn2-c2ccc(OC3CCN(C(=O)OC(C)C)CC3)cn2)c1 [Example-72, Isopropyl 4-((6-(5-(isopropylcarbamoyl)-1H-indol-1-yl)pyridin-3-yl)oxy) piperidine-1-carboxylate] | 250 to 1000 nM and 50 to 250 nM
CC(C)(C)OC(=O)N1CCC(Oc2ccc(-n3ccc4cc(C(=O)NCCO)ccc43)nc2)CC1 [Example-76, tert-Butyl-4-((6-(5-((2-hydroxyethyl)carbamoyl)-1H-indol-1-yl)-pyridin-3-yl)oxy)piperidine-1-carboxylate] | 50 to 250 nM
CN(C)C(=O)c1ccc2c(ccn2-c2ccc(OC3CCN(C(=O)OC(C)(C)C)CC3)cn2)c1 [Example-39, tert-Butyl-4-((6-(5-(dimethylcarbamoyl)-1H-indol-1-yl)pyridin-3-yl)oxy) piperidine-1-carboxylate] | < 50 nM
CCc1noc(N2CCC(Oc3ccc(-n4ccc5cc(NC(=O)OC(C)C)ccc54)nc3)CC2)n1 [Example-143, Isopropyl(1-(5-((1-(3-ethyl-1,2,4-oxadiazol-5-yl)piperidin-4-yl)oxy)pyridin-2-yl)-1H-indol-5-yl)carbamate] | < 50 nM
CC(C)c1noc(-c2ccc3c(ccn3-c3ccc(OC4CCN(C(=O)OC(C)(C)C)CC4)cn3)c2)n1 [Example-99, tert-Butyl-4-((6-(5-(3-isopropyl-1,2,4-oxadiazol-5-yl)-1H-indol-1-yl)pyridin-3-yl)oxy)piperidine-1-carboxylate] | 250 to 1000 nM
CC(C)NC(=O)c1ccc2c(c1)CCN2c1ccc(OC2CCN(C(=O)OC(C)(C)C)CC2)cn1 [Example-136, tert-Butyl-4-((6-(5-(isopropylcarbamoyl)indolin-1-yl)pyridin-3-yl)-oxy) piperidine-1-carboxylate] | < 50 nM
CCc1cnc(N2CCC(OCc3ccc(-n4ccc5cc(S(C)(=O)=O)ccc54)nc3)CC2)nc1 [Example-42, 1-(5-(((1-(5-Ethylpyrimidin-2-yl)piperidin-4-yl)oxy)methyl)pyridin-2-yl)-5-(methylsulfonyl)-1H-indole] | 50 to 250 nM
CC(C)CN1CCC(Oc2ccc(-n3ccc4cc(S(C)(=O)=O)ccc43)nc2)CC1 [Example-30, 1-(5-((1-Isobutylpiperidin-4-yl)oxy)pyridin-2-yl)-5-(methylsulfonyl)-1H-indole] | < 50 nM and 50 to 250 nM
